# Assay results: ChEMBL document CHEMBL1148695, “Synthesis and biological activity of nociceptin/orphanin FQ analogues substituted in position 7 or 11 with Calpha,alpha-dialkylated amino acids” (Bioorg Med Chem, 2007)
# Where “and” joins values, the source holds several entries; their conditions need not be identical. Equal values may be shown once.
# Biological target: Nociceptin receptor (Mus musculus, UniProt P35377)
# Test: (§1) Agonist activity at NOP receptor in Swiss mouse vas deferens assessed as effect on electrically stimulated contractions
# Assay type: functional, tissue-based
# Nociceptin receptor, sequence (P35377 whole entry): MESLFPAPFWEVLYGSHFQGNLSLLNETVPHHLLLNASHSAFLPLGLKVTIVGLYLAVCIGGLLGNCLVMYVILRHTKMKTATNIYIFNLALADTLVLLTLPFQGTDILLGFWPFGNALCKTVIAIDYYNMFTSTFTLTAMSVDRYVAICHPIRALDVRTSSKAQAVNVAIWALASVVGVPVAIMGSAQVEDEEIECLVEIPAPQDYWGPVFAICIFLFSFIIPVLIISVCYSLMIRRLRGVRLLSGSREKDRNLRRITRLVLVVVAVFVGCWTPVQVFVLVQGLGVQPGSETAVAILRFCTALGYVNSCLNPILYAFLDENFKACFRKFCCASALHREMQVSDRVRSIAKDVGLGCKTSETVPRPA
row,SMILES,EC50
1,CC(C)C[C@H](NC(=O)[C@H](CCCCN)NC(=O)[C@H](CCCNC(=N)N)NC(=O)[C@H](C)NC(=O)[C@H](CO)NC(=O)[C@H](CCCCN)NC(=O)[C@H](CCCNC(=N)N)NC(=O)C(C)(CC(C)C)NC(=O)CNC(=O)[C@@H](NC(=O)[C@H](Cc1ccccc1)NC(=O)CNC(=O)CNC(=O)[C@@H](N)Cc1ccccc1)[C@@H](C)O)C(=O)N[C@@H](C)C(=O)N[C@@H](CC(N)=O)C(=O)N[C@@H](CCC(N)=O)C(N)=O (some centres not stated) [listing 1 of 2 here],75.9 nM
2,CC(C)C[C@H](NC(=O)[C@H](CCCCN)NC(=O)[C@H](CCCNC(=N)N)NC(=O)C1(NC(=O)[C@H](CO)NC(=O)[C@H](CCCCN)NC(=O)[C@H](CCCNC(=N)N)NC(=O)[C@H](C)NC(=O)CNC(=O)[C@@H](NC(=O)[C@H](Cc2ccccc2)NC(=O)CNC(=O)CNC(=O)[C@@H](N)Cc2ccccc2)[C@@H](C)O)CC1)C(=O)N[C@@H](C)C(=O)N[C@@H](CC(N)=O)C(=O)N[C@@H](CCC(N)=O)C(N)=O,16.6 nM
3,CC(C)C[C@H](NC(=O)[C@H](CCCCN)NC(=O)[C@H](CCCNC(=N)N)NC(=O)C(C)(NC(=O)[C@H](CO)NC(=O)[C@H](CCCCN)NC(=O)[C@H](CCCNC(=N)N)NC(=O)[C@H](C)NC(=O)CNC(=O)[C@@H](NC(=O)[C@H](Cc1ccccc1)NC(=O)CNC(=O)CNC(=O)[C@@H](N)Cc1ccccc1)[C@@H](C)O)C(C)C)C(=O)N[C@@H](C)C(=O)N[C@@H](CC(N)=O)C(=O)N[C@@H](CCC(N)=O)C(N)=O (some centres not stated) [listing 1 of 3 here],19.5 nM
4,CCCC(CCC)(NC(=O)CNC(=O)[C@@H](NC(=O)[C@H](Cc1ccccc1)NC(=O)CNC(=O)CNC(=O)[C@@H](N)Cc1ccccc1)[C@@H](C)O)C(=O)N[C@@H](CCCNC(=N)N)C(=O)N[C@@H](CCCCN)C(=O)N[C@@H](CO)C(=O)N[C@@H](C)C(=O)N[C@@H](CCCNC(=N)N)C(=O)N[C@@H](CCCCN)C(=O)N[C@@H](CC(C)C)C(=O)N[C@@H](C)C(=O)N[C@@H](CC(N)=O)C(=O)N[C@@H](CCC(N)=O)C(N)=O,12.6 nM
5,CC(C)C[C@H](NC(=O)[C@H](CCCCN)NC(=O)[C@H](CCCNC(=N)N)NC(=O)C(C)(NC(=O)[C@H](CO)NC(=O)[C@H](CCCCN)NC(=O)[C@H](CCCNC(=N)N)NC(=O)[C@H](C)NC(=O)CNC(=O)[C@@H](NC(=O)[C@H](Cc1ccccc1)NC(=O)CNC(=O)CNC(=O)[C@@H](N)Cc1ccccc1)[C@@H](C)O)C(C)C)C(=O)N[C@@H](C)C(=O)N[C@@H](CC(N)=O)C(=O)N[C@@H](CCC(N)=O)C(N)=O (some centres not stated) [listing 2 of 3 here],14.8 nM
6,CC(C)C[C@H](NC(=O)[C@H](CCCCN)NC(=O)[C@H](CCCNC(=N)N)NC(=O)[C@H](C)NC(=O)[C@H](CO)NC(=O)[C@H](CCCCN)NC(=O)[C@H](CCCNC(=N)N)NC(=O)C(C)(NC(=O)CNC(=O)[C@@H](NC(=O)[C@H](Cc1ccccc1)NC(=O)CNC(=O)CNC(=O)[C@@H](N)Cc1ccccc1)[C@@H](C)O)C(C)C)C(=O)N[C@@H](C)C(=O)N[C@@H](CC(N)=O)C(=O)N[C@@H](CCC(N)=O)C(N)=O (some centres not stated) [listing 1 of 2 here],27.5 nM
7,CC(C)C[C@H](NC(=O)[C@H](CCCCN)NC(=O)[C@H](CCCNC(=N)N)NC(=O)[C@H](C)NC(=O)[C@H](CO)NC(=O)[C@H](CCCCN)NC(=O)[C@H](CCCNC(=N)N)NC(=O)C(C)(CC(C)C)NC(=O)CNC(=O)[C@@H](NC(=O)[C@H](Cc1ccccc1)NC(=O)CNC(=O)CNC(=O)[C@@H](N)Cc1ccccc1)[C@@H](C)O)C(=O)N[C@@H](C)C(=O)N[C@@H](CC(N)=O)C(=O)N[C@@H](CCC(N)=O)C(N)=O (some centres not stated) [listing 2 of 2 here],46.8 nM
8,CC[C@](C)(NC(=O)CNC(=O)[C@@H](NC(=O)[C@H](Cc1ccccc1)NC(=O)CNC(=O)CNC(=O)[C@@H](N)Cc1ccccc1)[C@@H](C)O)C(=O)N[C@@H](CCCNC(=N)N)C(=O)N[C@@H](CCCCN)C(=O)N[C@@H](CO)C(=O)N[C@@H](C)C(=O)N[C@@H](CCCNC(=N)N)C(=O)N[C@@H](CCCCN)C(=O)N[C@@H](CC(C)C)C(=O)N[C@@H](C)C(=O)N[C@@H](CC(N)=O)C(=O)N[C@@H](CCC(N)=O)C(N)=O [listing 1 of 3 here],24 nM
9,CC[C@](C)(NC(=O)CNC(=O)[C@@H](NC(=O)[C@H](Cc1ccccc1)NC(=O)CNC(=O)CNC(=O)[C@@H](N)Cc1ccccc1)[C@@H](C)O)C(=O)N[C@@H](CCCNC(=N)N)C(=O)N[C@@H](CCCCN)C(=O)N[C@@H](CO)C(=O)N[C@@H](C)C(=O)N[C@@H](CCCNC(=N)N)C(=O)N[C@@H](CCCCN)C(=O)N[C@@H](CC(C)C)C(=O)N[C@@H](C)C(=O)N[C@@H](CC(N)=O)C(=O)N[C@@H](CCC(N)=O)C(N)=O [listing 2 of 3 here],14.8 nM
10,CC(C)C[C@H](NC(=O)[C@H](CCCCN)NC(=O)[C@H](CCCNC(=N)N)NC(=O)[C@H](C)NC(=O)[C@H](CO)NC(=O)[C@H](CCCCN)NC(=O)[C@H](CCCNC(=N)N)NC(=O)C(C)(NC(=O)CNC(=O)[C@@H](NC(=O)[C@H](Cc1ccccc1)NC(=O)CNC(=O)CNC(=O)[C@@H](N)Cc1ccccc1)[C@@H](C)O)C(C)C)C(=O)N[C@@H](C)C(=O)N[C@@H](CC(N)=O)C(=O)N[C@@H](CCC(N)=O)C(N)=O (some centres not stated) [listing 2 of 2 here],55 nM

# Biological target: Nociceptin receptor (Mus musculus) (UniProt P35377)
# Test: as §1
# Assay type: functional, tissue-based
# Nociceptin receptor (Mus musculus), sequence (P35377 whole entry): as above
row,SMILES,Emax
1,CCC(C)(NC(=O)[C@H](CO)NC(=O)[C@H](CCCCN)NC(=O)[C@H](CCCNC(=N)N)NC(=O)[C@H](C)NC(=O)CNC(=O)[C@@H](NC(=O)[C@H](Cc1ccccc1)NC(=O)CNC(=O)CNC(=O)[C@@H](N)Cc1ccccc1)[C@@H](C)O)C(=O)N[C@@H](CCCNC(=N)N)C(=O)N[C@@H](CCCCN)C(=O)N[C@@H](CC(C)C)C(=O)N[C@@H](C)C(=O)N[C@@H](CC(N)=O)C(=O)N[C@@H](CCC(N)=O)C(N)=O (some centres not stated),90%
2,CC(C)C[C@H](NC(=O)[C@H](CCCCN)NC(=O)[C@H](CCCNC(=N)N)NC(=O)C(C)(NC(=O)[C@H](CO)NC(=O)[C@H](CCCCN)NC(=O)[C@H](CCCNC(=N)N)NC(=O)[C@H](C)NC(=O)CNC(=O)[C@@H](NC(=O)[C@H](Cc1ccccc1)NC(=O)CNC(=O)CNC(=O)[C@@H](N)Cc1ccccc1)[C@@H](C)O)C(C)C)C(=O)N[C@@H](C)C(=O)N[C@@H](CC(N)=O)C(=O)N[C@@H](CCC(N)=O)C(N)=O (some centres not stated) [listing 3 of 3 here],93% and 86%
3,CC(C)C[C@H](NC(=O)[C@H](CCCCN)NC(=O)[C@H](CCCNC(=N)N)NC(=O)C1(NC(=O)[C@H](CO)NC(=O)[C@H](CCCCN)NC(=O)[C@H](CCCNC(=N)N)NC(=O)[C@H](C)NC(=O)CNC(=O)[C@@H](NC(=O)[C@H](Cc2ccccc2)NC(=O)CNC(=O)CNC(=O)[C@@H](N)Cc2ccccc2)[C@@H](C)O)CC1)C(=O)N[C@@H](C)C(=O)N[C@@H](CC(N)=O)C(=O)N[C@@H](CCC(N)=O)C(N)=O,91%
4,CC(C)C[C@H](NC(=O)[C@H](CCCCN)NC(=O)[C@H](CCCNC(=N)N)NC(=O)[C@H](C)NC(=O)[C@H](CO)NC(=O)[C@H](CCCCN)NC(=O)[C@H](CCCNC(=N)N)NC(=O)C(C)(NC(=O)CNC(=O)[C@@H](NC(=O)[C@H](Cc1ccccc1)NC(=O)CNC(=O)CNC(=O)[C@@H](N)Cc1ccccc1)[C@H](C)O)C(C)C)C(=O)N[C@@H](C)C(=O)N[C@@H](CC(N)=O)C(=O)N[C@@H](CCC(N)=O)C(N)=O (some centres not stated),88% and 95%
5,CCCC(CCC)(NC(=O)CNC(=O)[C@@H](NC(=O)[C@H](Cc1ccccc1)NC(=O)CNC(=O)CNC(=O)[C@@H](N)Cc1ccccc1)[C@@H](C)O)C(=O)N[C@@H](CCCNC(=N)N)C(=O)N[C@@H](CCCCN)C(=O)N[C@@H](CO)C(=O)N[C@@H](C)C(=O)N[C@@H](CCCNC(=N)N)C(=O)N[C@@H](CCCCN)C(=O)N[C@@H](CC(C)C)C(=O)N[C@@H](C)C(=O)N[C@@H](CC(N)=O)C(=O)N[C@@H](CCC(N)=O)C(N)=O,91%
6,CC[C@](C)(NC(=O)CNC(=O)[C@@H](NC(=O)[C@H](Cc1ccccc1)NC(=O)CNC(=O)CNC(=O)[C@@H](N)Cc1ccccc1)[C@@H](C)O)C(=O)N[C@@H](CCCNC(=N)N)C(=O)N[C@@H](CCCCN)C(=O)N[C@@H](CO)C(=O)N[C@@H](C)C(=O)N[C@@H](CCCNC(=N)N)C(=O)N[C@@H](CCCCN)C(=O)N[C@@H](CC(C)C)C(=O)N[C@@H](C)C(=O)N[C@@H](CC(N)=O)C(=O)N[C@@H](CCC(N)=O)C(N)=O [listing 3 of 3 here],91% and 88%
7,CC(C)C[C@H](NC(=O)[C@H](CCCCN)NC(=O)[C@H](CCCNC(=N)N)NC(=O)[C@H](C)NC(=O)[C@H](CO)NC(=O)[C@H](CCCCN)NC(=O)[C@H](CCCNC(=N)N)NC(=O)C(C)(CC(C)C)NC(=O)CNC(=O)[C@@H](NC(=O)[C@H](Cc1ccccc1)NC(=O)CNC(=O)CNC(=O)[C@@H](N)Cc1ccccc1)[C@H](C)O)C(=O)N[C@@H](C)C(=O)N[C@@H](CC(N)=O)C(=O)N[C@@H](CCC(N)=O)C(N)=O (some centres not stated),84% and 95%
